Measurements from patent publication US7815949B2, “Estrogenic extracts of Morus alba and uses thereof” (BioNovo, Inc., priority 2004, dated 2010).

How the values were obtained:
ERα or ERβ = assay: ERE-tk-Luc luciferase activation in U937 cells transfected with ERα or ERβ; assay type: cell-based; conditions: human monocytic U937 cells
Protocol: (§1) Plasmid Construction. […] ERβ mutants were created with QuikChange site-directed mutagenesis kits (Stratagene), by using oligonucleotides containing the mutation. The mutants were sequenced with Sequenase kits (Amersham Pharmacia) to verify the presence of the mutation.
(§2) U937 cells were maintained as described previously, whereas U2OS, MDA-MB435, and MCF-7 cells were maintained and subcultured in phenol red-free Dulbecco's modified Eagle's medium/F-12 media containing 5% fetal bovine serum, 2 mM glutamine, 50 units/ml penicillin, and 50 μg/ml streptomycin. For experiments, cells were collected, transferred to a cuvette, and then electroporated with a Bio-Rad gene pulser as described previously using 3 μg of reporter plasmid and 1 μg of ERα or ERβ expression vectors. After electroporation, the cells were re-suspended in media and plated at 1 ml/dish in 12-well multiplates. […] The concentration of hormone required to produce a half-maximal induction (EC50) or inhibition (IC50) of luciferase activity was calculated with the Prism curve-fitting program (Graph Pad Software, version 2.0b). […] The cells were plated in duplicate at a density of 25,000 cells/35-mm plate in tissue culture medium containing 3% stripped fetal bovine serum. […] After 8 days the cells were counted with a Coulter counter.

ERβ [1] = molecular target: T1, ERβ (Homo sapiens, UniProt Q92731); conditions: in the presence of ERβ
T1 sequence (Q92731 whole entry): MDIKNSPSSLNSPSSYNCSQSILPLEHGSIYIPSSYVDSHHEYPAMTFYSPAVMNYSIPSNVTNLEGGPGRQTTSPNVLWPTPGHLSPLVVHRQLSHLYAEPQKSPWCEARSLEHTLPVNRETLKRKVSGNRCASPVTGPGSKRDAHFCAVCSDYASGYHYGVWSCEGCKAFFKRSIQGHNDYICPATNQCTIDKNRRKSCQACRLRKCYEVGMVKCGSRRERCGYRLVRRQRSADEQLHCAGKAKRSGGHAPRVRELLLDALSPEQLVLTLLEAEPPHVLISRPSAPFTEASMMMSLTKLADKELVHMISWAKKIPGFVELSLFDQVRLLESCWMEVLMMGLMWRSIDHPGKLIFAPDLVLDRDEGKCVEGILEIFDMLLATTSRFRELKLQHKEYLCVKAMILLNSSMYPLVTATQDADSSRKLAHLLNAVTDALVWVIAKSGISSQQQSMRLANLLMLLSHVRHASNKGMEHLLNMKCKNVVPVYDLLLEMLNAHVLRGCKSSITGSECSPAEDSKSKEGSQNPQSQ
Protocol: as §1, §2

ERβ [2] = molecular target: T1, ERβ; assay: Repression of TNF-α activation of TNF-RE-tk-Luc in U2OS cells, ERβ; assay type: cell-based; design: expressed in transfected cells; host or cells: U2OS (human osteosarcoma)
Protocol: as §2
The extracts (a and b) were than decanted and only the soluble material was used.

TNF-RE-tk-Luc = assay: Antiestrogen effect on TNF-RE-tk-Luc (Example 2); assay type: cell-based; conditions: for effect on the repression induced by E2: TNF-RE-tk-Luc; for activation of TNF-RE-tk-Luc: antiestrogens, in contrast to E2
Protocol: as §1, §2

breast cancer = conditions: among 5129 women in the treatment group, median follow-up 40 months; cited from earlier work
[3] = tested on: estrogen receptor-positive breast cancer; conditions: five years of therapy; cited from earlier work
[4] = tested on: primary invasive breast cancer; conditions: women at high risk for breast cancer; cited from earlier work

| SMILES | greater activation of the ERE in the presence of ERα compared to ERβ (ERα or ERβ) [fold] | repression of TNF-α activation of TNF-RE-tk-Luc (ERβ [1]) | repression of TNF-α activation of TNF-RE (ERβ [2]) [%] | effect on the repression induced by E2 (TNF-RE-tk-Luc) | activation of TNF-RE-tk-Luc (TNF-RE-tk-Luc) [fold] | cases of breast cancer (breast cancer) [cases] | reduction of mortality from breast cancer [3] [%] | reduction of the risk of recurrences [3] [%] | reduction of the risk of primary invasive breast cancer [4] [%] |
| --- | --- | --- | --- | --- | --- | --- | --- | --- | --- |
| C[C@]12CC[C@@H]3c4ccc(O)cc4CC[C@H]3[C@@H]1CC[C@@H]2O [E2, estradiol] | 10 | 60-80% | 100 |  |  |  |  |  |  |
| C[C@]12CC[C@@H]3c4ccc(O)cc4C[C@@H](CCCCCCCCC[S+]([O-])CCCC(F)(F)C(F)(F)F)[C@H]3[C@@H]1CC[C@@H]2O (stereo partly shown) [ICI 182, 780] |  |  |  | abolished | 2 |  |  |  |  |
| O=C(c1ccc(OCCN2CCCCC2)cc1)c1c(-c2ccc(O)cc2)sc2cc(O)ccc12 [raloxifene] |  |  |  | abolished | 2 | 13 |  |  |  |
| CC/C(=C(\c1ccccc1)c1ccc(OCCN(C)C)cc1)c1ccccc1 [tamoxifen] |  |  |  | abolished | 2 |  | 22 | 42 | 49 |
